In patent US20260015358A1, “BICYCLIC DERIVATIVES, COMPOSITIONS AND USES THEREOF” (Danatlas Pharmaceuticals Co., Ltd., priority 2023, published 2026):

Assays:
[1] = target: T1, WRN [UniPro: Q14191 (WRN_HUMAN), N500-C946] (Homo sapiens (Human), UniProt Q14191); assay: WRN unwinding assay (FORKF DNA, fluorescence); format: biochemical; conditions: Table 14
[2] = target: T1, WRN [UniPro: Q14191 (WRN_HUMAN), N500-C946]; assay: WRN ATPase assay (ADP-Glo); format: biochemical; conditions: WRN enzymatic activity assay

T1 sequence (Q14191 500-946): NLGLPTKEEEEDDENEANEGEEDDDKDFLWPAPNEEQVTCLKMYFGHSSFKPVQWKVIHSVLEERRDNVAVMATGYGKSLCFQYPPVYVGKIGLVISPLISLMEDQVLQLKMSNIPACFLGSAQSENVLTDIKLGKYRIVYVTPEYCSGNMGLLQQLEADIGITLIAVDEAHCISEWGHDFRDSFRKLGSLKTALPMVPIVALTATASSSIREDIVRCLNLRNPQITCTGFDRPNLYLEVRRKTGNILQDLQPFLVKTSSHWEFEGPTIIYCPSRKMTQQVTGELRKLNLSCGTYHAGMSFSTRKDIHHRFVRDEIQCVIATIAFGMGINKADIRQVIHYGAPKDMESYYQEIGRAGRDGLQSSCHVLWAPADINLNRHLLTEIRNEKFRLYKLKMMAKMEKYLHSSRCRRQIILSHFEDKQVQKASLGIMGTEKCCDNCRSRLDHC

CCc1c(N2CCN(C(=O)CNC(=O)c3nc(NC)ccc3F)CC2)c(=O)n2nc(C3=CCOCC3)nc2n1CC(=O)Nc1ccc(C(F)(F)F)cc1Cl [Example 361, N-(2-(4-(4-(2-((2-Chloro-4-(trifluoromethyl)phenyl)amino)-2-oxoethyl)-2-(3,6-dihydro-2H-pyran-4-yl)-5-ethyl-7-oxo-4,7-dihydro-[1,2,4]triazolo[1,5-a]pyrimidin-6-yl)piperazin-1-yl)-2-oxoethyl)-3-fluoro-6-(methylamino) picolinamide]
IC50 [1]: < 100 nM | IC50 [2]: < 100 nM

CCc1c(N2CCN(C(=O)CNc3ncnc4cccnc34)CC2)c(=O)n2nc(C3=CCOCC3)nc2n1CC(=O)Nc1ccc(C(F)(F)F)cc1Cl [Example 362, N-(2-Chloro-4-(trifluoromethyl)phenyl)-2-(2-(3,6-dihydro-2H-pyran-4-yl)-5-ethyl-7-oxo-6-(4-(pyrido[3,2-d]pyrimidin-4-ylglycyl)piperazin-1-yl)-[1,2,4]triazolo[1,5-a]pyrimidin-4(7H)-yl)acetamide]
IC50 [1]: < 100 nM | IC50 [2]: 100 to 1000 nM

CCc1c(N2CCN(C(=O)CNc3ncnc4[nH]ccc34)CC2)c(=O)n2nc(C3=CCOCC3)nc2n1CC(=O)Nc1ccc(C(F)(F)F)cc1Cl [Example 363, 2-(6-(4-((7H-Pyrrolo[2,3-d]pyrimidin-4-yl)glycyl)piperazin-1-yl)-2-(3,6-dihydro-2H-pyran-4-yl)-5-ethyl-7-oxo-[1,2,4]triazolo[1,5-a]pyrimidin-4(7H)-yl)-N-(2-chloro-4-(trifluoromethyl)phenyl)acetamide]
IC50 [1]: > 1000 nM | IC50 [2]: > 1000 nM

CCc1c(N2CCN(C(=O)CNC(=O)c3ncncc3O)CC2)c(=O)n2nc(C3=CCOCC3)nc2n1CC(=O)Nc1ccc(C(F)(F)F)cc1Cl [Example 364, N-(2-(4-(4-(2-((2-Chloro-4-(trifluoromethyl)phenyl)amino)-2-oxoethyl)-2-(3,6-dihydro-2H-pyran-4-yl)-5-ethyl-7-oxo-4,7-dihydro-[1,2,4]triazolo[1,5-a]pyrimidin-6-yl)piperazin-1-yl)-2-oxoethyl)-5-hydroxypyrimidine-4-carboxamide]
IC50 [1]: < 100 nM | IC50 [2]: < 100 nM

CCc1c(N2CCN(C(=O)CNC(=O)c3[nH]c(=O)ccc3F)CC2)c(=O)n2nc(C3=CCOCC3)nc2n1CC(=O)Nc1ccc(C(F)(F)F)cc1Cl [Example 365, N-(2-(4-(4-(2-((2-Chloro-4-(trifluoromethyl)phenyl)amino)-2-oxoethyl)-2-(3,6-dihydro-2H-pyran-4-yl)-5-ethyl-7-oxo-4,7-dihydro-[1,2,4]triazolo[1,5-a]pyrimidin-6-yl)piperazin-1-yl)-2-oxoethyl)-3-fluoro-6-oxo-1,6-dihydropyridine-2-carboxamide]
IC50 [1]: < 100 nM | IC50 [2]: 100 to 1000 nM

CCc1c(N2CCN(C(=O)CNC(=O)c3cccc(=O)[nH]3)CC2)c(=O)n2nc(C3=CCOCC3)nc2n1CC(=O)Nc1ccc(C(F)(F)F)cc1Cl [Example 366, N-(2-(4-(4-(2-((2-Chloro-4-(trifluoromethyl)phenyl)amino)-2-oxoethyl)-2-(3,6-dihydro-2H-pyran-4-yl)-5-ethyl-7-oxo-4,7-dihydro-[1,2,4]triazolo[1,5-a]pyrimidin-6-yl)piperazin-1-yl)-2-oxoethyl)-6-oxo-1,6-dihydropyridine-2-carboxamide]
IC50 [1]: < 100 nM | IC50 [2]: < 100 nM

CCc1c(N2CCN(C(=O)CNC(=O)c3nc(N)ccc3F)CC2)c(=O)n2nc(C3=CCOCC3)nc2n1CC(=O)Nc1ccc(C(F)(F)F)cc1Cl [Example 367, 6-Amino-N-(2-(4-(4-(2-((2-chloro-4-(trifluoromethyl)phenyl)amino)-2-oxoethyl)-2-(3,6-dihydro-2H-pyran-4-yl)-5-ethyl-7-oxo-4,7-dihydro-[1,2,4]triazolo[1,5-a]pyrimidin-6-yl)piperazin-1-yl)-2-oxoethyl)-3-fluoropicolinamide]
IC50 [1]: < 100 nM | IC50 [2]: < 100 nM
